Measured values reported in patent publication US8436043B2 (Takeda Pharmaceutical Company Limited, priority 2008, dated 2013).

Target: T1, human glucagon receptor (Homo sapiens, UniProt P47871)
T1 construct: made in house; host or cells: FreeStyle CHO cells, transient transfection with pMSRαneo/hGCGR; membrane fraction (35,000 rpm pellet)
Experiment: Glucagon binding inhibitory activity ([125I]-glucagon binding to glucagon receptor membrane protein)
Settings: human glucagon receptor membrane protein, [125I]-glucagon, 90 min room temperature
In short: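 Receptor source was a membrane fraction of transiently transfected CHO cells bearing human receptor; 90 min room-temperature binding, filtration harvest, scintillation counting.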

T1 sequence (P47871 26-477): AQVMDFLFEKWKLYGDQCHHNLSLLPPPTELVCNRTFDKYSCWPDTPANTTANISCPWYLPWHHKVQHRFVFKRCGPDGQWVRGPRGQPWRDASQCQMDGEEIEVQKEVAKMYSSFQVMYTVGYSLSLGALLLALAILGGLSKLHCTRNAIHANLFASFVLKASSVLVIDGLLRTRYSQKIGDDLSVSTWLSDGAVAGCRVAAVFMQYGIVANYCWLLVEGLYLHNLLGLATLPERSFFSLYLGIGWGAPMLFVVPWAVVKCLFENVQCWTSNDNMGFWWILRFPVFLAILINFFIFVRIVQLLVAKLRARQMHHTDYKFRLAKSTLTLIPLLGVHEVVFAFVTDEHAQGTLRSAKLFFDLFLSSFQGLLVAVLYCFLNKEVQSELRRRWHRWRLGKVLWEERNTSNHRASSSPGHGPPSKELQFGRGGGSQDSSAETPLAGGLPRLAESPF

Compound `CN(CCC(=O)O)C(=O)c1ccc(NC(c2cn(-c3ccc(OC(F)(F)F)cc3)nc2OCc2ccccc2)C2CCCCC2)cc1` (stereo not shown) [Example 61, 3-{[(4-{[{3-(benzyloxy)-1-[4-(trifluoromethoxy)phenyl]-1H-pyrazol-4-yl}(cyclohexyl)methyl]amino}phenyl)carbonyl](methyl)amino}-propanoic acid] has an IC50 of 320 nM.

Same assay, conditions: test compound 10 μM; 0.4% DMSO = 0%, non-labeled glucagon 1 μM = 100%; read-out: inhibitory rate (%) at 10 μM

In order of rising inhibition at 10 µM:
1. Cc1c(C(Nc2ccc(C(=O)N(C)CCC(=O)O)cc2)C2CCCCC2)oc2cccnc12 (stereo not shown) [Example A113, 3-{[(4-{[cyclohexyl(3-methylfuro[3,2-b]pyridin-2-yl)methyl]amino}phenyl)carbonyl](methyl)amino}propanoic acid]  68%
2. CN(CCC(=O)O)C(=O)c1ccc(NC(c2cn(-c3ccccc3)nc2OCc2ccccc2)C2CCCCC2)cc1 (stereo not shown) [Example 67, 3-[{[4-({[3-(benzyloxy)-1-phenyl-1H-pyrazol-4-yl](cyclohexyl)methyl}amino)phenyl]carbonyl}(methyl)amino]-propanoic acid]  72%
3. COc1ccc2c(C(Nc3ccc(C(=O)N(C)CCC(=O)O)cc3)C3CCCCC3)c(C)oc2c1 (stereo not shown) [Example A215, 3-{[(4-{[cyclohexyl(6-methoxy-2-methyl-1-benzofuran-3-yl)methyl]amino}phenyl)carbonyl](methyl)amino}propanoic acid]  72%
4. Cc1c(C(CC(C)C)Nc2ccc(C(=O)NCCC(=O)O)cn2)sc2ccccc12 (stereo not shown) [Example A36, 3-{[(6-{[3-methyl-1-(3-methyl-1-benzothiophen-2-yl)butyl]amino}pyridin-3-yl)carbonyl]amino}propanoic acid]  73%
5. COc1ccc(-n2cc(C(Nc3ccc(C(=O)N(C)CCC(=O)O)cc3)C3CCCCC3)c(C)n2)cc1 (stereo not shown) [Example 24, 3-[{[4-({cyclohexyl[1-(4-methoxyphenyl)-3-methyl-1H-pyrazol-4-yl]methyl}amino)phenyl]carbonyl}(methyl)amino]propanoic acid]  73%
6. Cc1c(C(Nc2ccc(C(=O)NCCC(=O)O)cc2)C2CCCCC2)oc2ccc(Cl)cc12 (stereo not shown) [Example A88, 3-{[(4-{[(5-chloro-3-methyl-1-benzofuran-2-yl)(cyclohexyl)methyl]amino}phenyl)carbonyl]amino}propanoic acid]  75%
7. CN(CCC(=O)O)C(=O)c1ccc(NC(c2cn(-c3ccc(OC(F)(F)F)cc3)nc2OCc2ccccc2)C2CCCCC2)cc1 (stereo not shown) [Example 61, 3-{[(4-{[{3-(benzyloxy)-1-[4-(trifluoromethoxy)phenyl]-1H-pyrazol-4-yl}(cyclohexyl)methyl]amino}phenyl)carbonyl](methyl)amino}-propanoic acid]  75%
8. Cc1c(C(Nc2ccc(C(=O)N(C)CCC(=O)O)nc2)C2CCCCC2)sc2ccccc12 (stereo not shown) [Example A59, 3-{[(5-{[cyclohexyl(3-methyl-1-benzothiophen-2-yl)methyl]amino}pyridin-2-yl)carbonyl](methyl)amino}propanoic acid]  77%
9. Cc1c(C(Nc2ccc(C(=O)NCCC(=O)O)cc2)C2CCCCC2)oc2ccc(F)cc12 (stereo not shown) [Example A39, 3-{[(4-{[cyclohexyl(5-fluoro-3-methyl-1-benzofuran-2-yl)methyl]amino}phenyl)carbonyl]amino}propanoic acid]  78%
10. Cc1c(C(Nc2ccc(C(=O)N(C)CCC(=O)O)cc2)C2CCCCC2)oc2ccc(C#N)cc12 (stereo not shown) [Example A99, 3-{[(4-{[(5-cyano-3-methyl-1-benzofuran-2-yl)(cyclohexyl)methyl]amino}phenyl)carbonyl](methyl)amino}-propanoic acid]  80%
11. COc1ccc(-c2ccc3oc(C(Nc4ccc(C(=O)N(C)CCC(=O)O)cc4)C4CCCCC4)c(C)c3c2)cn1 (stereo not shown) [Example A174, 3-[{[4-({cyclohexyl[5-(6-methoxypyridin-3-yl)-3-methyl-1-benzofuran-2-yl]methyl}amino)phenyl]carbonyl}(methyl)amino]propanoic acid]  98%
12. CSCCOc1ccc2oc(C(Nc3ccc(C(=O)N(C)CCC(=O)O)cc3)C3CCCCC3)c(C)c2c1 (stereo not shown) [Example A147, 3-[({4-[(cyclohexyl{3-methyl-5-[2-(methylthio)ethoxy]-1-benzofuran-2-yl}methyl)amino]phenyl}carbonyl)(methyl)amino]propanoic acid]  99%
